Assays:
Experiment in all cases: combination Emax (second highest fraction inhibited in the dose matrix, 72 h); higher = more inhibition; extreme values may be limits of the assay
[1] = tested on: C2BBe1 (Colorectal Carcinoma)
How it was run: (§1)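 Bliss excess equals the observed combination effect minus the expected value EA + EB − EA·EB, where EA and EB are the effects of each agent alone. Combination Emax is the second-highest inhibition within the matrix. Inhibition was scaled from CellTiter-Glo 2.0 luminescence, with 0 set by vehicle wells and 1 by blank wells, after 72 hours of two-drug dosing of cells plated in 1536-well plates.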

[2] = tested on: SBC-5 (Small Cell Lung Carcinoma)
How it was run: as §1

[3] = tested on: NCI-H835 (Other Solid Carcinomas)
How it was run: as §1

[4] = tested on: NCI-H2170 (Squamous Cell Lung Carcinoma)
How it was run: as §1

[5] = tested on: RS4-11 (B-Lymphoblastic Leukemia)
How it was run: as §1

[6] = tested on: RPMI-8402 (T-Lymphoblastic Leukemia)
How it was run: as §1

[7] = tested on: TOV-21G (Ovarian Carcinoma)
How it was run: as §1

DK-MG (Glioblastoma) = tested on: DK-MG (Glioblastoma)
How it was run: as §1

[8] = tested on: SCC90 (Head and Neck Carcinoma)
How it was run: as §1

C32 (Melanoma) = tested on: C32 (Melanoma)
How it was run: as §1

MG-63 (Osteosarcoma) = tested on: MG-63 (Osteosarcoma)
How it was run: as §1

[9] = tested on: NCI-H1435 (Non-Small Cell Lung Carcinoma)
How it was run: as §1

[10] = tested on: COR-L105 (Lung Adenocarcinoma)
How it was run: as §1

[11] = tested on: MRK-nu-1 (Breast Carcinoma)
How it was run: as §1

[12] = tested on: HT-3 (Cervical Carcinoma)
How it was run: as §1

[13] = tested on: MDA-MB-175-VII (Breast Carcinoma)
How it was run: as §1

[14] = tested on: NCI-H2009 (Lung Adenocarcinoma)
How it was run: as §1

[15] = tested on: HT-1197 (Bladder Carcinoma)
How it was run: as §1

[16] = tested on: BT-474 (Breast Carcinoma)
How it was run: as §1

[17] = tested on: L-363 (Plasma Cell Myeloma)
How it was run: as §1

| Compound | combination Emax [1] | combination Emax [2] | combination Emax [3] | combination Emax [4] | combination Emax [5] | combination Emax [6] | combination Emax [7] | combination Emax (DK-MG (Glioblastoma)) | combination Emax [8] | combination Emax (C32 (Melanoma)) | combination Emax (MG-63 (Osteosarcoma)) | combination Emax [9] | combination Emax [10] | combination Emax [11] | combination Emax [12] | combination Emax [13] | combination Emax [14] | combination Emax [15] | combination Emax [16] | combination Emax [17] |
| --- | --- | --- | --- | --- | --- | --- | --- | --- | --- | --- | --- | --- | --- | --- | --- | --- | --- | --- | --- | --- |
| C=CCn1c(=O)c2cnc(Nc3ccc(N4CCN(C)CC4)cc3)nc2n1-c1cccc(C(C)(C)O)n1 [AZD1775] + C1CN(CCC1(C(=O)N[C@@H](CCO)C2=CC=C(C=C2)Cl)N)C3=NC=NC4=C3C=CN4 [Capivasertib] (first compound max 3 µM, partner max 3 µM) | 0.533 | 0.87 | 0.866 | 0.828 | 0.939 | 1 | 0.85 | 0.485 | 0.668 | 0.52 | 0.668 | 0.442 | 0.584 | 0.721 | 0.736 | 0.506 | 0.883 | 0.543 | 0.47 | 0.939 |
| CN(CCO)CC[C@H](CSc1ccccc1)Nc1ccc(S(=O)(=O)NC(=O)c2ccc(N3CCC([C@@H](O)c4ccccc4-c4ccc(Cl)cc4)CC3)cc2)cc1S(=O)(=O)C(F)(F)F [AZD4320] + C1CN(CCC1(C(=O)N[C@@H](CCO)C2=CC=C(C=C2)Cl)N)C3=NC=NC4=C3C=CN4 [Capivasertib] (first compound max 1 µM, 7x7, partner max 3 µM) | 0.209 | 0.175 | – | 0.772 | 1 | 0.961 | 0.688 | 0.255 | 0.836 | 0.257 | 0.271 | 0.876 | 0.411 | 0.3 | 0.0692 | 0.799 | 0.0559 | 0.321 | 0.254 | 0.376 |
| CN(CCO)CC[C@H](CSc1ccccc1)Nc1ccc(S(=O)(=O)NC(=O)c2ccc(N3CCC([C@@H](O)c4ccccc4-c4ccc(Cl)cc4)CC3)cc2)cc1S(=O)(=O)C(F)(F)F [AZD4320] + CC(=O)O[C@H]1C(=O)[C@@]2(C)[C@H]([C@H](OC(=O)c3ccccc3)[C@]3(O)C[C@H](OC(=O)[C@H](O)[C@@H](NC(=O)c4ccccc4)c4ccccc4)C(C)=C1C3(C)C)[C@]1(OC(C)=O)CO[C@@H]1C[C@@H]2O [Paclitaxel] (first compound max 1 µM, 7x7, partner max 3 µM) | – | – | 1 | – | – | 1 | – | – | – | 0.864 | 1 | 0.929 | 0.695 | 1 | – | 0.766 | 0.933 | – | – | 1 |
| CN(CCO)CC[C@H](CSc1ccccc1)Nc1ccc(S(=O)(=O)NC(=O)c2ccc(N3CCC([C@@H](O)c4ccccc4-c4ccc(Cl)cc4)CC3)cc2)cc1S(=O)(=O)C(F)(F)F [AZD4320] + CCN(CCO)CCCOc1ccc2c(Nc3cc(CC(=O)Nc4cccc(F)c4)[nH]n3)ncnc2c1 [AZD2811] (first compound max 1 µM, 7x7, partner max 1 µM) | 0.224 | 0.3 | – | 0.627 | 1 | 0.999 | 0.476 | 0.255 | 0.715 | 0.643 | 0.86 | 0.699 | 0.215 | 0.863 | 0.177 | 0.413 | 0.224 | 0.241 | 0.319 | 0.135 |
| CN(CCO)CC[C@H](CSc1ccccc1)Nc1ccc(S(=O)(=O)NC(=O)c2ccc(N3CCC([C@@H](O)c4ccccc4-c4ccc(Cl)cc4)CC3)cc2)cc1S(=O)(=O)C(F)(F)F [AZD4320] + C[C@@H]1COCCN1C2=NC(=NC(=C2)C3(CC3)[S@](=N)(=O)C)C4=C5C=CNC5=NC=C4 [AZD6738] (first compound max 1 µM, 7x7, partner max 10 µM) | 0.494 | 0.771 | – | 0.829 | 1 | 1 | 0.824 | 0.359 | 0.535 | 0.787 | 0.525 | 0.852 | 0.54 | 0.819 | 0.764 | 0.474 | 0.543 | 0.443 | 0.259 | 0.853 |
| CN(CCO)CC[C@H](CSc1ccccc1)Nc1ccc(S(=O)(=O)NC(=O)c2ccc(N3CCC([C@@H](O)c4ccccc4-c4ccc(Cl)cc4)CC3)cc2)cc1S(=O)(=O)C(F)(F)F [AZD4320] + C[C@@H](Nc1cc(F)cc(F)c1)c1cc(C(=O)N(C)C)cc2c(=O)cc(N3CCOCC3)oc12 [AZD8186] (first compound max 1 µM, 7x7, partner max 3 µM) | 0.461 | 0.41 | – | 0.764 | 1 | 0.994 | 0.37 | 0.557 | 0.557 | 0.681 | 0.375 | 0.966 | 0.387 | 0.589 | 0.237 | 0.453 | 0.553 | 0.319 | 0.428 | 0.249 |
| CN(CCO)CC[C@H](CSc1ccccc1)Nc1ccc(S(=O)(=O)NC(=O)c2ccc(N3CCC([C@@H](O)c4ccccc4-c4ccc(Cl)cc4)CC3)cc2)cc1S(=O)(=O)C(F)(F)F [AZD4320] + Cc1cc2ncnn2cc1Nc1ncc2c(n1)n(C1CCOCC1)c(=O)n2C [AZD7648] (first compound max 1 µM, 7x7, partner max 10 µM) | 0.383 | 0.166 | – | 0.674 | 1 | 0.929 | 0.209 | 0.261 | 0.448 | 0.211 | 0.179 | 0.752 | 0.253 | 0.697 | 0.0567 | 0.274 | 0.0699 | 0.261 | 0.154 | 0.211 |
| Cc1cc2ncnn2cc1Nc1ncc2c(n1)n(C1CCOCC1)c(=O)n2C [AZD7648] + C=CCn1c(=O)c2cnc(Nc3ccc(N4CCN(C)CC4)cc3)nc2n1-c1cccc(C(C)(C)O)n1 [AZD1775] (first compound max 10 µM, partner max 1 µM) | 0.345 | 0.359 | 0.69 | 0.741 | 0.952 | 1 | 0.56 | 0.43 | 0.905 | 0.434 | 0.466 | 0.355 | 0.492 | 0.596 | 0.401 | 0.38 | 0.566 | 0.521 | 0.324 | 0.979 |
| Cc1cc2ncnn2cc1Nc1ncc2c(n1)n(C1CCOCC1)c(=O)n2C [AZD7648] + COc1cc([C@@H]2c3cc4c(cc3[C@@H](O[C@@H]3O[C@@H]5CO[C@@H](C)O[C@H]5[C@H](O)[C@H]3O)[C@H]3COC(=O)[C@H]23)OCO4)cc(OC)c1O [Etoposide] (first compound max 10 µM, 7x7, partner max 10 µM) | – | – | 0.692 | – | – | 1 | – | – | – | 0.526 | 0.874 | 0.286 | 0.338 | 0.726 | – | 0.399 | 0.824 | – | – | 0.702 |
| Cc1cc2ncnn2cc1Nc1ncc2c(n1)n(C1CCOCC1)c(=O)n2C [AZD7648] + O=C(c1cc(Cc2n[nH]c(=O)c3ccccc23)ccc1F)N1CCN(C(=O)C2CC2)CC1 [Olaparib] (first compound max 10 µM, 7x7, partner max 10 µM) | 0.218 | 0.218 | – | 0.411 | 0.484 | 0.561 | 0.16 | 0.262 | 0.188 | 0.0555 | 0.53 | 0.149 | 0.222 | 0.387 | 0.0499 | 0.142 | 0.137 | 0.216 | 0.117 | 0.231 |
| N#Cc1cnc(Nc2cc(NC[C@H]3CNCCO3)c(C(F)(F)F)cn2)cn1 [SRA737] + CCc1c2c(nc3ccc(O)cc13)-c1cc3c(c(=O)n1C2)COC(=O)[C@]3(O)CC [SN-38] (first compound max 10 µM, 7x7, partner max 0.3 µM) | – | – | 0.402 | – | – | 1 | – | – | – | 0.626 | 0.953 | 0.46 | 0.38 | 0.763 | – | 0.63 | 0.768 | – | – | 0.878 |
| N#Cc1cnc(Nc2cc(NC[C@H]3CNCCO3)c(C(F)(F)F)cn2)cn1 [SRA737] + Nc1ccn([C@@H]2O[C@H](CO)[C@@H](O)C2(F)F)c(=O)n1 [Gemcitabine] (first compound max 10 µM, 7x7, partner max 0.3 µM) | – | – | 0.321 | – | – | 1 | – | – | – | 0.724 | 0.988 | 0.411 | 0.485 | 0.748 | – | 0.519 | 0.785 | – | – | 0.986 |
| C[C@@H](c1ccc2nccn2c1)n1nnc2ncc(-c3cnn(C)c3)nc21 [Savolitinib] + CN(CC[C@H](CSC1=CC=CC=C1)NC2=C(C=C(C=C2)S(=O)(=O)NC(=O)C3=CC=C(C=C3)N4CCC(CC4)[C@H](C5=CC=CC=C5C6=CC=C(C=C6)Cl)O)S(=O)(=O)C(F)(F)F)CCO [AZD4320] (first compound max 1 µM, 7x7, partner max 1 µM) | 0.187 | 0.326 | – | 0.657 | 1 | – | 0.227 | 0.37 | 0.502 | 0.377 | – | – | – | – | 0.15 | – | – | 0.255 | 0.262 | – |

Reference: the supplement of paper PMC11061612
